Patent US5620676A, “Biologically active ATP analogs” (priority 1995, dated 1997)
Where “and” joins values, the source holds several entries; their conditions need not be identical. Equal values may be shown once. Entries after “also recorded” stand apart in the source; their conditions may differ. Read-outs that look alike come from different tables or passages of the source.

Experiments:
[1] = target: T1, P2Y receptor (turkey erythrocyte membranes) (Meleagris gallopavo, UniProt P49652); assay: Stimulation of phospholipase C (inositol phosphate formation) in turkey erythrocyte membranes; format: biochemical; settings: for maximal level (100%) of [3H]inositol phosphate accumulation: with GTPγS and maximal concentration of agonist
T1 construct: from tissue; host or cells: washed turkey erythrocytes, ghosts prepared by hypotonic lysis
How it was run: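 Erythrocytes were labelled 18-24 h at 37 °C with [3H]myoinositol, and ghosts were made by hypotonic lysis. Ghosts (≈175 μg protein) were incubated 5 min at 30 °C in Hepes buffer pH 7.0 with 1 μM GTPγS and nucleotide analogs. Total [3H]inositol phosphates were purified by anion exchange; K0.5 averaged from 3-8 dose-response curves.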

[2] = tested on: P2Y receptors; assay: Overall activity in P2Y receptor systems
Procedure: Phospholipase C activity: Stimulation of inositol phosphate formation by compounds of the present invention was measured in turkey erythrocyte membranes as described by Harden et al., supra and Boyer et al., supra. The K0.5 values were averaged from 3-8 independently determined dose-response curves for each compound. Briefly, one ml of washed turkey erythrocytes was incubated in inositol-free medium (DMEM; Gibco) with 0.5-1 mCi of 2-[^3 H]myoinositol (20 Ci/mmol; American Radiolabeled Chemicals Inc., St. Louis, Mo.)for 18-24 h in a humidified atmosphere of 95% air 5% CO2 at 37° C. Erythrocyte ghosts were prepared by rapid lysis in hypotonic buffer (5 mM sodium phosphate, pH 7.4, 5 mM MgCl2, 1 mM EGTA) as described by Boyer et al., supra. Phospholipase C activity was measured in 25 μl of [^3 H]inositol-labeled ghosts (≈175 μg of protein, 200-500,000 cpm/assay) in a medium containing 424 μM CaC12, 0.91 mM MgSO4, 2 mM EGTA, 115 mM KCl, 5 mM KH2 PO4, and 10 mM Hepes, pH 7.0. Assay (100 μl or 200 μl final volume) contained 1 μM GTPγS and the indicated concentrations of nucleotide analogs. Ghosts were incubated at 30° C. for 5 min, and total [^3 H]inositol phosphates were quantitated after purification by anion exchange chromatography according to Harden et al. (supra) and Boyer et al. (supra).
Muscular relaxation/contraction: Relaxant responses mediated via P2Y receptors were examined in guinea pig taenia coli, rabbit aorta, and rabbit mesenteric artery, as described by Hoyle et al. (Br. J. Pharmacol., 107, 367-374 (1992a)), Burnstock et al., (Br. J. Pharmacol., 90, 383-391 (1987a)), and Rubino et al., (Eur. J. Pharmacol., 212, 237-240 (1992)). Contractile responses mediated via P2X receptors were examined in the guinea pig urinary bladder and vas deferens, and rabbit saphenous artery, also using standard methods (see Hoyle et al., supra., 1992; Hoyle et al., Br. J. Pharmacol., 99, 617-621 (1990); and Burnstock et al., Br. J. Pharmacol., 90, 111-120 (1987b)).

[3] = tested on: P2X receptor (rat urinary bladder membranes); assay: Displacement of [3H]-α,β-methylene-ATP from rat urinary bladder membranes; format: binding; settings: about 10 nM [3H]-α,β-MeATP
Procedure: Certain ATP analogs known to bind to P2Y receptors, as disclosed in Examples 4-9, were tested on membrane preparations of urinary bladder, which is known to include P2X receptors (See, e.g., Lukacsko et al., Eur. J. Pharmacol., 80, 401-406 (1982)). The assay used is predicated on the specific displacement of […] known to bind at the P2X receptor, namely α,β-methylene-ATP.
For this assay, male Wistar rats (200-250 g) were killed by asphyxiation with CO2. […] The pellets were washed and suspended in buffer A and the protein content was determined using the method of Peterson (Anal. Biochem., 83, 346-356 (1977)).
Displacement experiments were carried out by incubating the membrane preparations with about 10 nM [^3 H]-α,β-MeATP and various concentrations of an unlabeled ligand in buffer A at 4° C. for 120 min (final volume 0.5 ml). […] The filters were washed with 2 aliquots of 5 ml ice-cold 5 mM Tris/HCl buffer, pH 7.4, dried under an infrared lamp, and then the radioactivity trapped in the filters was measured in a Beckman SC6100 I scintillation counter with an efficiency of about 56 to 61%. Non-specific binding was determined by including 100 μM β,γ-methylene-ATP in the incubation mixture.

[4] = turkey erythrocyte membranes, mean ± S.E.M. for at least 2 determinations, read-out: phosphatidyl inositol metabolism (K0.5, nM) erythrocyte

T1 sequence (P49652 whole entry): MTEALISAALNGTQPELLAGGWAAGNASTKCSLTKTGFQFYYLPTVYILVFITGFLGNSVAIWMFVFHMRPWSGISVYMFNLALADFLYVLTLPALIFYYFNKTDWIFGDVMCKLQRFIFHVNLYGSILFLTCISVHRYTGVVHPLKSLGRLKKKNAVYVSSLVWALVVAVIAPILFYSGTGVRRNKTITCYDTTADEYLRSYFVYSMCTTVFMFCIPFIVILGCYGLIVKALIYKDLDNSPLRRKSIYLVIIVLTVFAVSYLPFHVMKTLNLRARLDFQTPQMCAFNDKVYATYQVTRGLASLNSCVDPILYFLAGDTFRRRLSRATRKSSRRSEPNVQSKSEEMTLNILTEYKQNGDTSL

SMILES | activity/potency in words, turkey erythrocyte ([1]; turkey erythrocyte membranes) | EC50 [1, 4] [nM] | EC50 ([1]; turkey erythrocyte membranes, read-out: K0.5) | maximal level (100%) of [3H]inositol phosphate accumulation [1] [cpm] | overall activity in words, P2Y systems ([2]; listed as 2-(6-cyanohexyl)thio ATP) | overall activity in words, P2Y systems ([2]; listed as 2-(6-cyanohexylthio)-ATP) | fold diminished potency upon N6-methylation, turkey erythrocyte ([1]; relative to 2-(5-hexenyl)thio-ATP) | EC50 ([1]; turkey erythrocyte membranes, read from graph, read-out: K0.5) [nM] | P2X binding in words [3]
N#CCCCCCCSc1nc(N)c2ncn([C@@H]3O[C@H](COP(=O)(O)OP(=O)(O)OP(=O)(O)O)[C@@H](O)[C@H]3O)c2n1 [2-(6-Cyanohexylthio)-ATP, 2-(6-Cyanohexylthio)adenosine-5'-triphosphate] | at least two orders of magnitude more potent; also recorded: about three orders of magnitude more potent | 10 ± 5 | 5 to 30 nM and ~10 nM | 6000 | by far the most potent agonist in several P2Y receptor preparations | the most potent compound in all of the P2Y receptor assays; also recorded: nanomolar potency |  |  | 
C=CCCCCSc1nc(NC)c2ncn([C@@H]3O[C@H](COP(=O)(O)OP(=O)(O)OP(=O)(O)O)[C@@H](O)[C@H]3O)c2n1 [N^6 -Me-2-(5-hexenyl)-thio-ATP, N^6 -Me-2-(5-hexenylthio)adenosine 5'-triphosphate] |  | 26 ± 7 |  | 9150 |  |  | 2.6 -fold | 10 | two orders of magnitude greater concentration
